Measurements reported in US20100331363A1, “TREATMENT OF MITOCHONDRIAL DISORDERS USING A FARNESYL TRANSFERASE INHIBITOR” (Link Medicine Corporation, priority 2008, published 2010).
Entries after “also recorded” stand apart in the source; their conditions may differ. Like-named read-outs stand apart in the source and are kept apart here. Each block holds one compound with its values, some of them ahead of it.

What was measured:
[1] = test system: LC3-II protein; assay: LC3-II protein level in SH-SY5Y cells with or without bafilomycin A1; format: cell-based, human; conditions: bafilomycin A1 10 nM alone
Description: The observed increase in LC3-positive autophagosomes could result, in principle, from either an increased flux through the autophagy pathway or decreased autophagosome degradation (Pankiv, S., et al. J Biol Chem 282, 24131-24145 (2007); Kamada, Y., et al. J Cell Biol 150, 1507-1513 (2000)). […] In order to ascertain an increase in autophagic flux, cells were co-treated with LNK-754-TS and an inhibitor of autophagosome-lysosome fusion, bafilomycin A1 (10 nM). Bafilomycin treatment alone caused a 100% increase in the amount of LC3-II, consistent with the fact that it inhibits autophagosome degradation (FIG. 8c).

[2] = test system: human α-synuclein; assay: Masliah D-line α-synuclein transgenic mouse, α-synuclein immunoreactivity and ELISA; format: in vivo; conditions: α-synuclein transgenic mice vs vehicle
Description: Animals and treatments: Male and female human WT alpha-synuclein over-expressing transgenic mice^32 at 6 months of age were given vehicle (10% beta-cyclodextrin) or LNK-754-TS (0.09, 0.9 and 9 mg/kg) per oral gavage twice daily for 3 months or animals at 7 months of age were given vehicle (2.5% beta-cyclodextrin) or LNK-754-TS (2 mg/kg) once every three days for 3 months. Male and female TAU transgenic mice expressing TAU441 bearing the missense mutations V337M^50 and R406W under the control of the murine Thy-1 promoter with a CB6xC57BL/6 background were 5 months old at the time when the oral treatment for three months with LNK-754-TS (0.9 and 0.09 mg/kg) as well as vehicle (2.5% beta-cyclodextrin) was started. Female human APP/PS1 (APP (London V7171)/PS1(A246E)) over-expressing transgenic mice were treated with LNK-754-TS (0.9 mg/kg) or vehicle (2.5% beta-cyclodextrin) for 2 months or 12 days.
Immunohistochemistry and quantification of stained cells: For evaluation of α-synuclein immunoreactivity (IR), 5 sagittal cryo-cut sections (10 μm slice thickness) from five different layers were used for counting of IR cells in the cortex and hippocampus. Brain sections were stained with a monoclonal human α-synuclein specific antibody (Alexis®; Cat#804-258-L001; dilution 1:5), followed by a secondary Ab Cy 2-Goat Anti-Rat (Jackson ImmunoResearch®; dilution 1:200). IR positive cells were quantified using specialized image analysis software (Image Pro Plus, version 4.5.1.29). For Tau transgenic animals, 5 μm thick coronal paraffin sections were stained with the monoclonal mouse anti-human TAU-antibodies (AT180—1:100; HT7—1:500) and visualized using an anti-mouse Cy3 secondary antibody (1:500, Jackson Laboratories®). Images were evaluated with ImageProPlus (version 6.2) image analysis software. For APP/PS1 transgenic animals sagittal hemisections (40 μm) were collected and processed for Aβ immunohistochemistry using an 6E10 antibody, Thioflavin-S staining. Primary antibodies were detected by the ABC method.
ELISA quantification of α-Synuclein in the α-Synuclein transgenic animals: Brain homogenate was centrifuged and the supernatant saved as fraction F1. The pellet was washed then resuspended and saved as fraction F2. Plates (Nunc, 464718) were coated with SYN-1 (1:1000, BD Transduction Labs, 610787). Monomeric recombinant α-synuclein was included as an internal standard. Biotinylated antibody FL-140 (1:300, Santa Cruz Biotechnology, sc-10717-B) and ExtrAvidin-Alkaline phosphatase (3:5000, Sigma, E2636) was added followed by pNPP substrate solution (Sigma, N1891). Raw absorbance (405 nm) was then normalized to the total protein concentration of each sample. In the APP/PS1 transgenic animal, brains were homogenized and the supernatant, Faction 1, was separated from the pellet. The pellets were further processed with addition of NP40 and Triton X-100. The supernatant was separated from the pellet as the insoluble membrane, Fraction 2, and was dissolved in 8M Guanidine. To quantify the amount of human Aβ-40 and Aβ-42, ELISA kits were used (The Genetics Company, Zurich, Switzerland).
In FIG. 2 is shown efficacy data for LNK-754-TS in the Masliah D-line transgenic α-synuclein mouse (an accepted model of synucleinopathies). Two trials are shown, the first (FIG. 2A) at higher doses of LNK-754-TS: 45 mg/kg and 9 mg/kg. […] The second trial (FIG. 2B) explores the low dose range for efficacy in the α-synuclein models. Here, doses start as low as 0.9 mg/kg, and extend through 9 mg/kg, all below the efficacious dose range in the mouse oncology model.
After dosing with LNK-754-TS for three months (twice daily at 0.09 mg/kg or 0.9 mg/kg), α-synuclein accumulation in the brain was analyzed by immunohistochemical (human specific α-synuclein immunoreactivity) and biochemical (α-synuclein ELISA) means. […]

[3] = Pharmacokinetics of Zarnestra in C57BL/6 mice, oral; format: in vivo, mouse; conditions: oral 5 mg/kg single dose; for MRT: read-out: MRT(0-[…])
Description: LLOQ: brain 4 ng/g; plasma 50 ng/ml.
The pharmacokinetic profiles of LNK-754-TS and Zarnestra® were analyzed using methods known in the art. The results are shown in FIGS. 13-14 and the tables below.

[4] = test system: LC3 mRNA; assay: LC3 mRNA (qPCR) in SH-SY5Y cells; format: cell-based, human; conditions: 100 nM, 72 hr, SH-SY5Y
Description: (§1) Cell culture and immunocytochemistry: SH-SY5Y cells were grown in DMEM medium supplemented with 10% FBS and 1% pen/strep at 37° C. and 5% CO2. Cells were differentiated with 10 μM retinoic acid for 48 hr, then treated with the either rapamycin (100 nM or 1 μM) or with 100 nM of either LNK-754-TS or Tipifarnib for 48-72 hr. Cells were then fixed with 4% paraformaldehyde and stained for LC3 (Novus biological, NB100-2331, dilution 1:800) followed by secondary Alexa-564 anti-Rabbit (A-11011).
(§2) Quantitative real-time PCR: Gene expression profiles were done by qPCR on series of known autophagy genes. RNA was extracted with Tri-reagent (Sigma), and cDNAs generated using iScript (Biorad). qPCR analysis was carried out in a 96 well plate using an iCycler (BioRad, Hercules, Calif.), and iQ SYBR Green Supermix (Biorad) according to the manufacturer's specifications.
Such increases in LC3 mRNA levels are associated in the literature with stimulation of macroautophagy. This supports the hypothesis that at doses as low as 1 nM in this in vitro system there is stimulation of autophagy in these cells.
(§3) Autophagy was measured in a neuroblastoma cell culture system by three distinct approaches: quantitation of autophagy-related mRNA's, immunofluorescence microscopy of autophagosomes, and biochemical detection of the microtubule-associated protein 1 light chain 3 (LC3) a key protein that is required for autophagosome formation. Differentiated human neuroblastoma cells (SH-SY5Y) were treated for 72 hr with LNK-754-TS (0.01-100 nM), Zarnestra® (also referred to herein as tipifarnib) (100 nM) or rapamycin (1 μM).

[5] = test system: LC3-positive puncta (autophagosomes); assay: LC3 immunostaining (LC3-positive puncta) in SH-SY5Y cells; format: cell-based, human; conditions: 100 nM, SH-SY5Y (FIG. 8b)
Description: as §1, §3

[6] = test system: autophagy-related gene transcripts; assay: mRNA of autophagy-related genes (Atg1, p62) in SH-SY5Y cells; format: cell-based, human; conditions: 100 nM, SH-SY5Y (FIG. 8d)
Description: as §2
Rapamycin is a well-characterized autophagy stimulator that acts through inhibition of mTOR, a kinase involved in nutrient signaling and regulation of cell growth and survival.

[7] = target: T1, GGTase (Homo sapiens, UniProt P49354+P53609); assay: GGTase inhibitory activity, general statement; format: biochemical; conditions: selective FTase inhibitors
[8] = target: FTase (Homo sapiens, UniProt P49354+P49356); conditions: End et al., Cancer Research 2001; cited from earlier work
[9] = target: T1, GGTase; conditions: at 50 micromolar; cited from earlier work

SMILES: CO/C1=C\C(C)=C\[C@@H](C)[C@@H](O)[C@@H](C)C/C(C)=C/C=C/[C@H](OC)[C@@H]([C@@H](C)[C@@H](O)[C@H](C)[C@@]2(O)C[C@@H](O)[C@H](C)[C@@H](C(C)C)O2)OC1=O [Bafilomycin, bafilomycin A1, reference compound]
increase in the amount of LC3-II [1]: 100%

AUC(0-t) ([3]; Brain): 44.50 ng·h/g
AUC(0-[…]) ([3]; Brain): 86.86 ng·h/g
Cmax ([3]; mouse, Brain): 6.84 ng/g
Tmax ([3]; mouse, Brain): 1 h
half-life ([3]; mouse, Brain): 8.1 h
MRT ([3]; mouse, Brain): 11.4 h
Cmax ([3]; mouse, plasma, Blood): 40.4 ng/mL
Tmax ([3]; mouse, plasma, Blood): 1 h
half-life ([3]; mouse, plasma, Blood): 1.31 h
AUC(0-t) ([3]; mouse, plasma, Blood, read-out: AUC(0-t)): 130 ng·h/mL
AUC ([3]; mouse, plasma, Blood, read-out: AUC(0-[…])): 131 ng·h/mL
MRT ([3]; mouse, plasma, Blood): 1.76 h
GGTase inhibitory activity [7]: little to no GGTase inhibitory activity
SMILES: Cn1cncc1[C@@](N)(c1ccc(Cl)cc1)c1ccc2c(c1)c(-c1cccc(Cl)c1)cc(=O)n2C [Zarnestra®, (R)-6-(Amino(4-chlorophenyl)(1-methyl-1H-imidazol-5-yl)methyl)-4-(3-chlorophenyl)-1-methyl-2(1H)-quinolinone]
levels of α-synuclein in the hippocampus [2]: decrease levels of α-synuclein
α-synuclein inclusions [2]: fewer α-synuclein inclusions
LC3 mRNA [4]: works in this assay; also recorded: upregulated
LC3 mRNA ([4]; listed as tipifarnib): increased
number of LC3-positive puncta [5]: distinct increase
number of LC3-positive puncta ([5]; listed as tipifarnib): increased
mRNA levels of a set of autophagy-related genes (incl. Atg1) [6]: unaffected
selectivity for FTase than GGTase [8]: over 5,000 times
inhibition of geranylgeranylation of lamin B peptide substrate by GGTase [9]: 40%
